The compounds below were run against T1, CDK4/cyclin D3 (Homo sapiens, UniProt P11802) (assay: Human CDK4/cyclin D3 inhibitory activity (QS S Assist CDK4/Cyclin D3_FP Kit, IMAP fluorescence polarization)). Conditions: 50% inhibitory concentration against CDK4/cyclin D3, given as class symbol.
T1 construct: purchased Carna Biosciences, Inc. QS S Assist CDK4/Cyclin D3_FP Kit
T1 sequence (P11802 whole entry): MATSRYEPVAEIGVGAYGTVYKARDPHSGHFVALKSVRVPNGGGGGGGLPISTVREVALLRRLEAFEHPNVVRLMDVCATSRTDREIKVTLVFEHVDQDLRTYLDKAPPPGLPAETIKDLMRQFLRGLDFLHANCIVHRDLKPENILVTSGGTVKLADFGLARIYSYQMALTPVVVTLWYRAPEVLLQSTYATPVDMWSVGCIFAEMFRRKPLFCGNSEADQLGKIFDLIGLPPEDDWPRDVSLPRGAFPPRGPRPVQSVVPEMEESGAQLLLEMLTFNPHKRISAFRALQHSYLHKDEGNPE
T1 sequence (P30281 whole entry partner): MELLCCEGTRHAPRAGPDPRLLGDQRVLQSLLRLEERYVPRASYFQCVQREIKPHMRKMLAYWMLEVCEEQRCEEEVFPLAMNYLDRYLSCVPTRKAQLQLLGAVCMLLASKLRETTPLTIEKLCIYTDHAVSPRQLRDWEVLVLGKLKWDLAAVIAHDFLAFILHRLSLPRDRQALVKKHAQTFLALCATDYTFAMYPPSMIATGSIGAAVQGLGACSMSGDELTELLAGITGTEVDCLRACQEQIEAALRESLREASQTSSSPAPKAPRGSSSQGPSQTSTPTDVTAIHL
Type: biochemical
Description: Human CDK4/Cyclin D3 Inhibitory Activity
Each compound was analyzed for CDK4/cyclin D3 inhibitory activity with an assay kit (QS S Assist CDK4/Cyclin D3_FP Kit, available from Carna Biosciences, Inc.). This assay kit determines kinase activity on the basis of the IMAP technology by Molecular Devices. Specifically, the kinase activity is determined through quantification of a variation in fluorescent polarization caused by binding of a kinase-phosphorylated fluorescent substance to an IMAP-binding reagent.
Each solution was prepared with the 10× assay buffer attached to the kit or a separately prepared assay buffer having the same composition as the assay buffer attached to the kit. An assay buffer was prepared by 10-fold dilution of the 10× assay buffer with distilled water. The assay buffer contains 20 mM HEPES (pH 7.4), 0.01% Tween20, and 2 mM dithiothreitol. A test compound solution was prepared by dilution of the test compound with dimethyl sulfoxide (DMSO) to a concentration 100 times higher than the final concentration and then 25-fold dilution with the assay buffer to a concentration four times higher than the final concentration. An ATP/substrate/Metal solution was prepared by five-fold dilution of the 5×ATP/substrate/Metal solution attached to the kit with the assay buffer. An enzyme solution was prepared by dilution of the CDK4/cyclin D3 attached to the kit with the assay buffer to a concentration twice higher than the final concentration (final concentration of CDK4/cyclin D3:12.5 to 25 ng/well). A detection reagent was prepared by five-fold dilution of each of 5× IMAP-binding buffer A and 5×IMAP-binding buffer B with distilled water, mixing of IMAP-binding buffer A with IMAP-binding buffer B at a ratio of 85:15, and 400-fold dilution of the IMAP-binding reagent with the mixed buffer.
The test compound solution (5 μL/well) and the ATP/substrate/Metal solution (5 μL/well) were added to a 384-well plate, and the enzyme solution or the assay buffer (10 μL/well) was added to the plate (total amount of the reaction mixture: 20 μL/well) for initiation of enzymatic reaction. […] The reaction was performed at room temperature for 45 minutes, and the detection reagent (60 μL/well) was then added to the plate, followed by further reaction for 30 minutes at room temperature under light shielding conditions. Subsequently, fluorescent polarization was determined with a microplate reader at an excitation wavelength of 485 nm and an emission wavelength of 535 nm.
The percent inhibition of enzyme activity was calculated for each test compound (note: enzyme activity=100% in the case of addition of the enzyme solution and addition of DMSO instead of the test compound solution, whereas enzyme activity=0% in the case of addition of the assay buffer instead of the enzyme solution, and addition of DMSO instead of the test compound solution). The percent inhibition of enzyme activity was fitted to a dose-response curve, to determine a 50% inhibitory concentration against CDK4/cyclin D3.
In each table, “+++” corresponds to IC50<10 nM, “++” 10 nM≤IC50<100 nM, and “+” 100 nM≤IC50.
In the case of `CC(C)Nc1nc([C@@H](C)O)cc2cnc(Nc3ccc(N4CC(F)(CO)C4)nn3)nc12` [Compound 707], the IC50 is reported as under 10 nM.
`CC(O)c1cc2cnc(Nc3ccc(OCCN(C)C)cn3)nc2c(NC2CCC(C)(C)OC2)n1` (single isomer, unassigned) [Compound 689] showed an IC50 of under 10 nM.
In the case of `CC(C)Nc1nc([C@@H](C)O)cc2cnc(Nc3ccc(N4CCC(C)(CO)CC4)nn3)nc12` [Compound 688], the IC50 is reported as under 10 nM.
`CC(O)c1cc2cnc(Nc3ccc(OCCN(C)C)cn3)nc2c(NC2CCC(C)(C)OC2)n1` (single isomer, unassigned) [Compound 690] was tested, and the IC50 was under 10 nM.
`CO[C@H](C)c1cc2cnc(Nc3ccc(CN4CCN(CCC(=O)O)CC4)cn3)nc2c(NC(C)C)n1` [Compound 685] gave an IC50 of 10 to 100 nM.
`CC(C)Nc1nc(C(C)O)cc2cnc(Nc3ccc(N4CCC(O)C(C)C4)nn3)nc12` (single isomer, unassigned) [Compound 705] was tested, and the IC50 was under 10 nM.

Same assay, conditions: Human CDK4/cyclin D3 inhibitory activity; read-out: CDK4 Activity symbol
`COC(C)c1cc2cnc(Nc3ccc(CN4CCNCC4)cn3)nc2c(NC2(CO)CCCCC2)n1` (stereo not drawn) [Compound 434] gave an IC50 of under 10 nM.
In the case of `COC(C)c1cc2cnc(Nc3ccc(CN4CCNCC4)cn3)nc2c(NC2CCCOCC2)n1` (stereo not drawn) [Compound 468], the IC50 is reported as under 10 nM.
`COC(C)c1cc2cnc(Nc3ccc(CN4CCNCC4)cn3)nc2c(NCCC2CCCO2)n1` (stereo not drawn) [Compound 429] was tested, and the IC50 was under 10 nM.
`COC(C)c1cc2cnc(Nc3ccc(CN4CCNCC4)cn3)nc2c(NC2CCC(=O)NC2)n1` (stereo not drawn) [Compound 421] was tested, and the IC50 was 10 to 100 nM.
For `CC(C)Nc1nc(C(F)F)cc2cnc(Nc3ccc(C4CCOCC4)cn3)nc12` [Compound 160], the IC50 was under 10 nM.
`CO[C@H](C)c1cc2cnc(Nc3ccc(N4CCNC(=O)C(C)(C)C4)cn3)nc2c(NC(C)C)n1` [Compound 514] showed an IC50 of 10 to 100 nM.
`COC(C)c1cc2cnc(Nc3ccc(OCC(C)(C)N)cn3)nc2c(NC(C)C)n1` (stereo not drawn) [Compound 458] showed an IC50 of under 10 nM.
Compound `CC(C)Nc1nc([C@@H](C)O)cc2cnc(Nc3ccc(O[C@H]4CCNC[C@@H]4F)nn3)nc12` [Compound 563] has an IC50 of under 10 nM.
In the case of `CNC1CCN(c2ccc(Nc3ncc4cc(C(C)OC)nc(NC(C)C)c4n3)nn2)CC1` (stereo not drawn) [Compound 452], the IC50 is reported as under 10 nM.
With `CC(C)Nc1nc(C(C)O)cc2cnc(Nc3ccc(N4CCCC(O)C4)nn3)nc12` (single isomer, unassigned) [Compound 582] the IC50 was under 10 nM.
For `CO[C@H](C)c1cc2cnc(Nc3ccc(OC4CCNCC4(F)F)cn3)nc2c(NC(C)C)n1` (stereo partly drawn) [Compound 473], the IC50 was 10 to 100 nM.
`CC(C)Nc1nc([C@@H](C)O)cc2cnc(Nc3ccc(N4CCN(C(C)CO)CC4=O)cn3)nc12` (stereo partly drawn) [Compound 598] was tested, and the IC50 was under 10 nM.
`COC(C)c1cc2cnc(Nc3ccc(N4CCCNCC4)cn3)nc2c(NC(C)C)n1` (stereo not drawn) [Compound 453] was tested, and the IC50 was under 10 nM.
`CO[C@H](C)c1cc2cnc(Nc3ccc(N4CCC(F)(F)CC4)cn3)nc2c(NC(C)C)n1` [Compound 470] showed an IC50 of at least 100 nM.
Compound `COC(C)c1cc2cnc(Nc3ccc(CN4CCNCC4)cn3)nc2c(NCC2CCCCO2)n1` (stereo not drawn) [Compound 398] has an IC50 of under 10 nM.
`CO[C@H](C)c1cc2cnc(Nc3ccc(CC(=O)N4CCNCC4)cn3)nc2c(NC(C)C)n1` [Compound 518] showed an IC50 of under 10 nM.
With `CC(C)Nc1nc([C@@H](C)O)cc2cnc(Nc3ccc(N4CCNCC4=O)nn3)nc12` [Compound 613] the IC50 was 10 to 100 nM.
With `CC(C)Nc1nc([C@@H](C)O)cc2cnc(Nc3ccc(OC4CCNC4)nn3)nc12` (stereo partly drawn) [Compound 544] the IC50 was under 10 nM.
Compound `CO[C@H](C)c1cc2cnc(Nc3ccc(NC4CCNC4)nn3)nc2c(NC(C)C)n1` (stereo partly drawn) [Compound 357] has an IC50 of under 10 nM.
`CO[C@H](C)c1cc2cnc(Nc3ccc(N4CCNC4=O)cn3)nc2c(NC(C)C)n1` [Compound 498] showed an IC50 of under 10 nM.
`COC(C)c1cc2cnc(Nc3ccc(CN4CCNCC4)cn3)nc2c(Nc2ccc(C#N)cc2)n1` (stereo not drawn) [Compound 401] gave an IC50 of 10 to 100 nM.
Compound `CO[C@H](C)c1cc2cnc(Nc3ccc(N4CCCN(C)CC4)nn3)nc2c(NC(C)C)n1` [Compound 488] has an IC50 of under 10 nM.
For `CO[C@H](C)c1cc2cnc(Nc3ccc(CN4CCNC5(CC5)C4)cn3)nc2c(NC(C)C)n1` [Compound 535], the IC50 was under 10 nM.
`CCC(C)Nc1nc(C(C)OC)cc2cnc(Nc3ccc(CN4CCNCC4)cn3)nc12` (stereo not drawn) [Compound 423] was tested, and the IC50 was under 10 nM.
With `COC(C)c1cc2cnc(Nc3ccc(CN4CCNCC4)cn3)nc2c(NCCC2CCOCC2)n1` (stereo not drawn) [Compound 428] the IC50 was under 10 nM.
`CC(C)Nc1nc([C@@H](C)O)cc2cnc(Nc3ccc(N4CCN(CC(C)(C)C)CC4)nn3)nc12` [Compound 587] showed an IC50 of under 10 nM.
For `CC(C)Nc1nc([C@@H](C)O)cc2cnc(Nc3ccc(N4CCNC(=O)C4)nn3)nc12` [Compound 540], the IC50 was under 10 nM.
Work on `COC(C)c1cc2cnc(Nc3ccc(CN4CCNCC4)cn3)nc2c(NCCC2CCCCO2)n1` (stereo not drawn) [Compound 430] yielded an IC50 of under 10 nM.
`CO[C@H](C)c1cc2cnc(Nc3ccc(N4CCC5(CC4)COC5)cn3)nc2c(NC(C)C)n1` [Compound 481] was tested, and the IC50 was 10 to 100 nM.
For `CC(C)Nc1nc([C@@H](C)O)cc2cnc(Nc3ccc(CC(=O)N4CCN(CCO)CC4)cn3)nc12` [Compound 616], the IC50 was under 10 nM.
`COC(=O)[C@H]1CC[C@H](CNc2nc(C(C)OC)cc3cnc(Nc4ccc(CN5CCNCC5)cn4)nc23)CC1` (stereo partly drawn) [Compound 390] gave an IC50 of under 10 nM.
`CNC1(C)CCN(c2ccc(Nc3ncc4cc([C@@H](C)OC)nc(NC(C)C)c4n3)nn2)CC1` [Compound 594] showed an IC50 of under 10 nM.
`CNCCCOc1ccc(Nc2ncc3cc([C@@H](C)OC)nc(NC(C)C)c3n2)nn1` [Compound 527] was tested, and the IC50 was 10 to 100 nM.
`COC(C)c1cc2cnc(Nc3ccc(O[C@@H]4CCNC[C@H]4F)cn3)nc2c(NC(C)C)n1` (relative stereo) [Compound 459] was tested, and the IC50 was under 10 nM.
In the case of `COC(C)c1cc2cnc(Nc3ccc(CN4CCNCC4)cn3)nc2c(NCC2(C)CC(O)CC(C)(C)C2)n1` (stereo not drawn) [Compound 454], the IC50 is reported as under 10 nM.
`COCC(C)(C)Nc1nc([C@@H](C)O)cc2cnc(Nc3ncc(N4CCNCC4)cn3)nc12` [Compound 375] was tested, and the IC50 was at least 100 nM.
`COC(C)c1cc2cnc(Nc3ccc(CN4CCNCC4)cn3)nc2c(Nc2cccc(C(=O)O)c2)n1` (stereo not drawn) [Compound 449] showed an IC50 of at least 100 nM.
For `COC(C)c1cc2cnc(Nc3ccc(CN4CCNCC4)cn3)nc2c(NC2CC3(C2)CC(C(=O)O)C3)n1` (stereo not drawn) [Compound 513], the IC50 was 10 to 100 nM.
In the case of `COC(C)c1cc2cnc(Nc3ccc(CN4CCNCC4)cn3)nc2c(NCC2COC2)n1` (stereo not drawn) [Compound 396], the IC50 is reported as at least 100 nM.
For `O[C@H]1CC[C@@H](Nc2nc(C(F)F)cc3cnc(Nc4ccc(N5CCNCC5)nn4)nc23)CC1` [Compound 425], the IC50 was under 10 nM.
With `CC(C)Nc1nc(C(C)O)cc2cnc(Nc3ccc(OC4CNCCC4F)cn3)nc12` (stereo not drawn) [Compound 577] the IC50 was under 10 nM.
`COC(C)c1cc2cnc(Nc3ccc(CN4CCNCC4)cn3)nc2c(NC2CNC(=O)C2)n1` (stereo not drawn) [Compound 419] gave an IC50 of 10 to 100 nM.
In the case of `COC(C)c1cc2cnc(Nc3ccc(CN4CCNCC4)cn3)nc2c(NCC(C)(C)OC)n1` (stereo not drawn) [Compound 394], the IC50 is reported as 10 to 100 nM.
In the case of `CC(C)Nc1nc(C(C)O)cc2cnc(Nc3ccc(CN4CCNC5(CC5)C4)cn3)nc12` (stereo not drawn) [Compound 516], the IC50 is reported as 10 to 100 nM.
`CC(C)Nc1nc(C(C)O)cc2cnc(Nc3ccc(N4CCC(O)C(F)C4)nn3)nc12` (stereo not drawn) [Compound 607] gave an IC50 of under 10 nM.
Work on `CC(C)Nc1nc([C@@H](C)O)cc2cnc(Nc3ccc(O[C@H]4CNC[C@@H]4F)nn3)nc12` [Compound 545] yielded an IC50 of under 10 nM.
`COC(C)c1cc2cnc(Nc3ccc(CN4CCNCC4)cn3)nc2c(Nc2cccc(F)c2)n1` (stereo not drawn) [Compound 447] was tested, and the IC50 was 10 to 100 nM.
`COC(C)c1cc2cnc(Nc3ccc(CN4CCNCC4)cn3)nc2c(NC2CCCCCC2)n1` (stereo not drawn) [Compound 445] gave an IC50 of under 10 nM.
In the case of `CO[C@H](C)c1cc2cnc(Nc3ccc(N4CCNCC(C)(C)C4=O)cn3)nc2c(NC(C)C)n1` [Compound 542], the IC50 is reported as 10 to 100 nM.
`CC(C)Nc1nc([C@@H](C)O)cc2cnc(Nc3ccc(SCCN(C)C)cn3)nc12` [Compound 580] was tested, and the IC50 was 10 to 100 nM.
`COC(C)c1cc2cnc(Nc3ccc(CN4CCNCC4)cn3)nc2c(Nc2cccc(C#N)c2)n1` (stereo not drawn) [Compound 412] gave an IC50 of under 10 nM.
In the case of `COC(C)c1cc2cnc(Nc3ccc(CN4CCNCC4)cn3)nc2c(NC23CC4CC(CC(O)(C4)C2)C3)n1` (stereo not drawn) [Compound 455], the IC50 is reported as under 10 nM.
`CO[C@H](C)c1cc2cnc(Nc3ccc(N4CC5(CCNCC5)C4)cn3)nc2c(NC(C)C)n1` [Compound 482] showed an IC50 of under 10 nM.
With `CNC(=O)CNc1ccc(Nc2ncc3cc([C@@H](C)O)nc(NC(C)C)c3n2)nc1` [Compound 539] the IC50 was 10 to 100 nM.
